1 compound from patent US20260248815A1, “NEUROACTIVE STEROID FORMULATIONS AND METHODS OF USE THEREOF” (Sage Therapeutics, LLC, priority 2023, published 2026) can be followed below.

Structures are written as SMILES. Read-outs that look alike come from different tables or passages of the source.

The data set is described as follows: Open-label single-dose PK study in participants with hepatic impairment and normal hepatic function. Format: in vivo, human. Particulars: GeoMean, single 1.2 mg oral dose softgel capsules; for Cmax / AUC(0-inf) / AUC(0-t) / Tmax / Vd/F: human, in vivo, po, 1.2 mg; for Vd/F: read-out: Vz/F. How it is done: In an open-label, parallel group study to evaluate the PK, safety, and tolerability of Compound I, a single 1.2 mg oral dose of softgel capsules was administered to participants with hepatic impairment and in participants with normal hepatic function. Part 1 of the study comprised participants with moderate hepatic impairment (as determined by the Child-Pugh classifications; Class B (7 to 9 points)) and participants with normal hepatic function assigned to Cohorts 1 and 2, respectively. After Cohort 1 had been completely enrolled, participants with normal hepatic function (Cohort 2) were matched to Cohort 1 participants with respect to sex, mean age (10 years) and mean body mass index (BMI; 20%).
On Day 1, participants in Cohorts 1 and 2 received a single oral dose of 1.2 mg Compound I softgel capsules in the morning. Serial blood samples for PK analysis were collected through 168 hours post dose.

Where [1] appears, read: Cohort 1: moderate hepatic impairment, N 8.
Setting [2] is: Cohort 2: normal hepatic function, N 7.
Where [3] appears, read: Cohort 2: normal hepatic function, N 8.

Take `C[C@H](CC[C@](C)(O)C(F)(F)F)[C@H]1CC[C@H]2[C@@H]3CC=C4C[C@@](C)(O)CC[C@]4(C)[C@H]3CC[C@]12C` [Compound I]: under setting [1], the CLz/F was 5.5 L/h; the tlast came to 53.9 h; the AUC(0-inf) (commonly total exposure, with the tail of the curve extrapolated) turned out to be 218 ng·h/mL; the AUC(0-t) (in general, exposure summed from dosing to a finite time, without extrapolation to infinity) came out at 188 ng·h/mL. For the same compound, under setting [1], the Tmax (as a rule, the time at which the peak concentration occurs) was determined as 3.69 h and the Vd/F was determined as 153 L. Also, under setting [2], the CLz/F is recorded as 4.71 L/h, the AUC(0-inf) is 255 ng·h/mL, the AUC(0-t) was determined as 238 ng·h/mL and the Vd/F worked out at 151 L. Moreover, under setting [3], the tlast is on record as 64.3 h; the Cmax (in general, the highest concentration seen after dosing) was determined as 15.7 ng/mL; the Tmax came to 3.99 h. For the same compound, the Cmax (Cohort 1: moderate hepatic impairment (Child-Pugh Class B), N 8) came out at 12.2 ng/mL.
